Data as given in US9828375B2, “4-position substituted pyrazolopyrimidine derivative, and use thereof in drug preparation” (Guangxi Wuzhou Pharmaceuticals (Group) Co., Ltd., priority 2012, dated 2017).

Legend:
[1] = tested on: human malignant melanoma cell line A375; experiment: In vitro tumor cell proliferation inhibition (MTT): A375; format: cell-based
From the text: (§1) The purpose of the experiment was to test the inhibition activity of the compounds of the invention for in vitro human tumor cell proliferation by the methyl thiazolyl tetrazolium (MTT) colorimetry.
(§2) Main reagents: RPMI-1640, fetal bovine serum, pancreatin, etc. were purchased from Gibco BRL Company (Invitrogen Corporation, USA) and IMDM medium that was purchased from American Type Culture Collection (ATCC). Methyl thiazolyl tetrazolium (MTT) and dimethyl sulfoxide (DMSO) were products from Sigma Company (USA). Pyrazolopyrimidine derivatives were composed by the inventor. During in vitro experiment, 100% DMSO was prepared into 10 mM storage solution, the solution was stored in a refrigerator at −20° C. for future use, and was diluted to the required concentration with complete culture solution before use.
(§3) Cell line and culture: Human leukemia cell line MV4-11, Jurkat, K562, human thyrophyma cell line TT, human gastric carcinoma cell line MKN-45, human malignant melanoma cell lines A375 and A875, human pancreatic carcinoma cell line panc-1, human cervical carcinoma cell line HELA, human colorectal carcinoma cell line HCT116, etc. were purchased from American type culture collection and were preserved by this laboratory. All leukemia cell lines (except MV4-11), gastric carcinoma cell lines and thyrophyma cell lines were cultured in RPMI-1640 complete medium containing 10% fetal bovine serum, 100 U/mL penicillin and 100 μg/mL streptomycin at 37° C. in 5% CO2. The remaining cell lines were cultured in DMEM complete medium containing 10% fetal bovine serum (containing 20% MV4-11 cell), 100 U/mL penicillin and 100 µg/mL streptomycin at 37° C. in 5% CO2.
(§4) Cell suspension with cell concentration of 1-2×10^4/mL was adjusted with the complete cell medium and inoculated in a 96-well plate, with each well filled with 200 μl cell suspension that was cultured overnight. On the next day, supernatant was sucked and abandoned (supernatant was sucked upon centrifugation of suspension cells), and then cells were processed with test compounds at gradient concentrations respectively. Meanwhile, a negative control group free from drug and a solvent control group with equal volume were set, and the DMSO concentration was 0.1%. Each dose group was provided with three wells and cultured at 37° C. in 5% CO2. After 72 hours, 20 μl 5 mg/mL MTT reagent was added to each well, and cultured for another 2 to 4 hours, the supernatant was abandoned; 150 μL DMSO was added to each well again, vibrated and mixed evenly for 15 minutes; the absorbance (A) values (proportional to living cell amount) were determined with a microplate reader (λ=570 nm) and averaged. […] Experiment was repeated for 3 times at least. Experimental data were expressed with means, data statistics were tested by t, and P<0.05 means that difference has a statistical significance. The cell proliferation inhibition effects of all compounds as follows are expressed by IC50 or inhibition rate.

PDGFRα = PDGFRα (Homo sapiens, UniProt P16234); experiment: Kinase inhibition activity test, isotope labeling: PDGFRα; format: biochemical; conditions: for Activity inhibition rate PDGFRα (h) / inhibition at 10 µM: test compound at a concentration of 10 μM; for inhibition at 10 µM: read-out: Activity inhibition rate PDGFRα (h); for IC50: ATP 120 μM, read-out: PDGFRα IC50 value (inhibitory activity value)
PDGFRα, sequence (P16234 24-1089): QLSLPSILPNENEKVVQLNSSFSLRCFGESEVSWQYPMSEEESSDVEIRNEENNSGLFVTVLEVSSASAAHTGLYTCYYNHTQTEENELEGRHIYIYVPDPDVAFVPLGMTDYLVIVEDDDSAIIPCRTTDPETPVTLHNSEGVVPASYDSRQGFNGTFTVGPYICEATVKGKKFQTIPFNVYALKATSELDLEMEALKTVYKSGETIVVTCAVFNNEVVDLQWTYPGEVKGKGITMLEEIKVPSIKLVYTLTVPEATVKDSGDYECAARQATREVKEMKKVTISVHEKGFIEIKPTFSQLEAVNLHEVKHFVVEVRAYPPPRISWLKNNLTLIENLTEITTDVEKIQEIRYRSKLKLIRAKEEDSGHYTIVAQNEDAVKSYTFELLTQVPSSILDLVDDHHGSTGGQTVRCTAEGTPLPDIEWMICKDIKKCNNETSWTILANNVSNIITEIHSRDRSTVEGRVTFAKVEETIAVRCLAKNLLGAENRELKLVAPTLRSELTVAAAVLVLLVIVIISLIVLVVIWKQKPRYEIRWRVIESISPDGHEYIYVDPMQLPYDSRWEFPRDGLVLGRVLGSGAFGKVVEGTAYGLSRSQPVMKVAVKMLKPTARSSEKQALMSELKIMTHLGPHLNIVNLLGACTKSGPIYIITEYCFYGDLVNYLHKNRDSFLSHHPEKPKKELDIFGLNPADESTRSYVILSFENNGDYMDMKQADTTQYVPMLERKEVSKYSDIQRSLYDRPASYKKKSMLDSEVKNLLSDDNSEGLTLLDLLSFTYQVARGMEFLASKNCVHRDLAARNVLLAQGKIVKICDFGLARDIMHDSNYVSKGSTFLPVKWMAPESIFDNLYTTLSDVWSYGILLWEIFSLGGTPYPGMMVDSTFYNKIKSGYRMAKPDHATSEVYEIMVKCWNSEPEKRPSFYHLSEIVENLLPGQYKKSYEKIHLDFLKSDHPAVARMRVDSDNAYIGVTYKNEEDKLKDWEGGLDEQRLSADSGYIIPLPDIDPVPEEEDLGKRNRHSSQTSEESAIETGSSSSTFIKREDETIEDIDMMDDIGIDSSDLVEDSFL
Procedure: The purpose of this experiment was to test the inhibitory activity of the compound of the invention for in vitro kinase with the isotope labeling method (the γ phosphate group on ATP was labeled). In this experiment, the in vitro activity inhibition of such kinases as FLT3, VEGFR2, FLT1, FLT4, RET, c-RAF, B-RAF, c-KIT, PDGFα, PDGFβ, FGFR2, FGFR1, EphA2, EphB2, SRC, ABL, ALK and Met was tested respectively. Staurosporine was reference molecule (or referred to as positive control). The kinase inhibition activity of the test compound was expressed by half-inhibitory concentration (IC50) or the kinase activity inhibition rate of the test compound at a concentration of 10 μM. The IC50 value could be obtained by calculating the kinase activity inhibition rate of the test compound at different concentrations.
20 mM 3-(N-morpholinyl)propanesulfonic acid (MOPS); 1 mM ethylenediaminetetraacetic acid (EDTA), 0.01% Brij 35 (Brij-35), 5% glycerol, 0.1% mercaptoethanol, 1 mg/mL bovine serum albumin (BSA), 10 mM manganous dichloride solution (MnCl2), 0.1 mg/mL glutamic acid/tyrosine (4:1) polypeptide (poly(Glu, Tyr)4:1), 50 μM EAIYAAPFAKKK (substrate of FLT3), 0.33 mg/mL myelin basic protein (substrate of VEGFR2), 250 μM KKKSPGEYVNIEFG (substrate of FLT1(h)), 500 μM GGEEEEYFELVKKKK (substrate of FLT4(h)), 250 μM KKKSPGEYVNIEFG (substrate of RET), 0.66 mg/mL myelin basic protein (substrate of C-RAF), 250 μM GGMEDIYFEFMGGKKK (substrate of c-Kit), 250 μM GGMEDIYFEFMGGKKK (substrate of PDGFα), 250 μM KKKSPGEYVNIEFG (substrate of FGFR1), […] GGEEEEYFELVKKKK (substrate of SRC), 50 μM EAIYAAPFAKKK (substrate of ABL), 250 μM KKKSPGEYVNIEFG (substrate of ALK), 250 μM KKKSPGEYVNIEFG (substrate of Met(h)), 10 mM magnesium acetate and γ-^33 P-ATP solution, stop buffer (3% phosphate buffer), washing buffer (75 mM phosphate solution), methanol, Filtermat A membrane, FLT3, VEGFR2, FLT3, VEGFR2, FLT1, FLT4, RET, c-RAF, B-RAF, c-KIT, PDGFRα, PDGFRβ, FGFR2, FGFR1, EphA2, EphB2, SRC, ABL, ALK, Met and other kinases, and the test compounds.
Buffers (8 mM MOPS with pH value of 7.0, 0.2 mM EDTA and 10 mM MnCl2), (5-10 mU) kinases to be tested (FLT3, VEGFR2, FLT1, FLT4, RET, c-RAF, B-RAF, c-KIT, PDGFRα, PDGFRβ, FGFR2, FGFR1, EphA2, EphB2, SRC, ABL, ALK and Met), substrates of kinases to be tested (refer to experimental materials), 10 mM magnesium acetate and γ-^33 P-ATP solution, and test compounds at different concentrations were added to a reaction tube orderly. […] Reaction was terminated with 5 μL 3% phosphate buffer finally, and 10 μL reaction solution was titrated to the Filtermat A membrane; solution was washed for 3 times with 75 mM phosphate solution with each time lasting 5 minutes, and then washed once with methanol. Finally, the Filtermat A membrane was dried, and scintillation counting was performed on the membrane, with scintillation count reflecting the phosphorylation degree of the substrates, so that the activity inhibition of kinase could be characterized.

[2] = tested on: human gastric carcinoma cell line MKN-45; experiment: In vitro tumor cell proliferation inhibition (MTT): MKN-45; format: cell-based
From the text: as §1, §2, §3, §4

[3] = tested on: human pancreatic carcinoma cell line panc-1; experiment: In vitro tumor cell proliferation inhibition (MTT): panc-1; format: cell-based
From the text: as §1, §2, §3, §4

[4] = tested on: human leukemia cell line K562; experiment: In vitro tumor cell proliferation inhibition (MTT): K562; format: cell-based
From the text: as §1, §2, §3, §4

[5] = tested on: human leukemia cell line MV4-11; experiment: In vitro tumor cell proliferation inhibition (MTT): MV4-11; format: cell-based
From the text: as §1, §2, §3, §4

[6] = tested on: human cervical carcinoma cell line HELA; experiment: In vitro tumor cell proliferation inhibition (MTT): HELA; format: cell-based; conditions: 72 hours
From the text: as §1, §2, §3, §4

SMILES	IC50 ([1]; 72 hours)	Activity inhibition rate PDGFRα (h) (PDGFRα)	IC50 ([2]; 72 hours)	IC50 ([3]; 72 hours)	IC50 ([4]; 72 hours)	IC50 ([5]; 72 hours)	IC50 [6]	IC50 ([1]; Homo sapiens, A-375, 72 hours)	inhibition at 10 µM (PDGFRα)	IC50 ([2]; Homo sapiens, MKN-45, 72 hours)	IC50 ([3]; Homo sapiens, PANC-1, 72 hours)	IC50 ([4]; Homo sapiens, K562, 72 hours)	IC50 ([5]; Homo sapiens, MV4-11, 72 h)	IC50 (PDGFRα)	IC50 ([6]; Homo sapiens, HeLa)
CC(C)c1cccc(NC(=O)Nc2ccc(Oc3ncnc4[nH]ncc34)c(F)c2)c1 [4a-7, 1-(4-((1H-pyrazolopyrimidine-4-yl)oxy)-3-fluorophenyl)-3-(3-isopropylphenyl)urea]	< 50 µM	89%	< 50 µM	< 50 µM	< 50 µM	0.011 µM	< 50 µM	–	–	–	–	–	–	–	–
CC(C)n1ncc2c(Oc3ccc(NC(=O)Nc4cc(C(C)(C)C)on4)cc3)ncnc21 [5a-4, 1-(5-tert-butylisoxazol-3-yl)-3-(4-(1-isopropyl-(1H-pyrazolopyrimidine-4-yl)oxy)phenyl)urea]	–	–	–	–	–	–	–	< 50 µM	> 30%	< 50 µM	< 50 µM	< 50 µM	< 1 µM	–	–
CC(C)(C)c1cc(NC(=O)Nc2ccc(Sc3ncnc4[nH]ncc34)cc2)no1 [4c-3, 1-(4-(1H-pyrazolopyrimidine-4-sulfydryl)phenyl)-3-(5-tert-butylisoxazol-3-yl)urea]	< 50 µM	>50%	3 to 10 µM	< 50 µM	< 50 µM	< 1 µM	< 50 µM	–	–	–	–	–	–	–	–
O=C(Nc1ccc(Oc2ncnc3[nH]ncc23)cc1)Nc1ccc(Cl)c(C(F)(F)F)c1 [4a-2]	2.12 µM	93%	8.23 µM	< 50 µM	< 50 µM	0.003 µM	< 50 µM	–	–	–	–	–	–	0.223 µM	–
O=C(Nc1ccccc1)Nc1ccc(Oc2ncnc3[nH]ncc23)cc1 [4a-15, 1-(4-((1H-pyrazolopyrimidine-4-yl)oxy)phenyl)-3-phenylurea]	< 50 µM	48%	< 50 µM	< 50 µM	< 50 µM	0.32 µM	< 50 µM	–	–	–	–	–	–	–	–
O=C(Nc1ccc(Oc2ncnc3[nH]ncc23)cc1)Nc1cccc(C(F)(F)F)c1 [4a-6]	–	–	–	–	–	–	–	3.45 µM	97%	9.71 µM	< 50 µM	< 50 µM	0.004 µM	0.322 µM	< 50 µM
C[C@H](NC(=O)Nc1ccc(Oc2ncnc3[nH]ncc23)cc1)c1ccccc1 [4a-18, (S)-1-(4-((1H-pyrazolopyrimidine-4-yl)oxy)phenyl)-3-(1-phenethyl)urea]	< 50 µM	96%	< 50 µM	< 50 µM	< 50 µM	0.112 µM	< 50 µM	–	–	–	–	–	–	–	–
O=C(Nc1ccc(Oc2ncnc3[nH]ncc23)cc1)Nc1ccc(C(F)(F)F)cc1Cl [4a-13]	< 50 µM	63%	6.68 µM	< 50 µM	< 50 µM	0.018 µM	< 50 µM	–	–	–	–	–	–	–	–
C[C@@H](NC(=O)Nc1ccc(Nc2ncnc3[nH]ncc23)cc1)c1ccccc1 [4b-2, (R)-1-(4-(1H-pyrazolopyrimidine-4-amido)phenyl)-3-(1-phenethyl)urea]	–	–	–	–	–	8.03 µM	–	< 50 µM	> 30%	< 50 µM	< 50 µM	< 50 µM	–	–	< 50 µM
O=C(Nc1ccc(Oc2ncnc3[nH]ncc23)cc1)Nc1ccc(C(F)(F)F)cc1 [4a-1]	–	–	–	–	–	–	–	< 50 µM	63%	< 50 µM	< 50 µM	< 50 µM	0.005 µM	–	< 50 µM
O=C(Nc1ccc(Sc2ncnc3[nH]ncc23)cc1)Nc1ccc(C(F)(F)F)cc1 [4c-1]	–	–	–	–	–	–	–	< 50 µM	> 50%	–	< 50 µM	–	0.012 µM	–	–
COc1ccc(NC(=O)Nc2ccc(NC(=O)N3C=NC=C4NNC=C43)cc2)cc1 [4b-6, 1-(4-(1H-pyrazolopyrimidine-4-amido)phenyl)-3-(4-methoxyphenyl)urea]	–	–	–	–	–	–	–	< 50 µM	> 30%	< 50 µM	< 50 µM	< 50 µM	0.729 µM	–	–
O=C(Nc1ccc(Sc2ncnc3[nH]ncc23)cc1)Nc1cccc(C(F)(F)F)c1 [4c-2]	< 50 µM	>50%	8.71 µM	< 50 µM	–	0.039 µM	–	–	–	–	–	–	–	–	–
O=C(Nc1ccc(Oc2ncnc3[nH]ncc23)cc1)Nc1ccc(N2CCOCC2)cc1 [4a-16, 1-(4-((1H-pyrazolopyrimidine-4-yl)oxy)phenyl)-3-(4-morpholinylphenyl)urea]	–	–	–	–	–	–	–	< 50 µM	–	3.22 µM	< 50 µM	< 50 µM	0.089 µM	–	< 50 µM
Cc1cc(C)c(NC(=O)Nc2ccc(NC(=O)N3C=NC=C4NNC=C43)cc2)c(C)c1 [4b-7, 1-(4-(1H-pyrazolopyrimidine-4-amido)phenyl)-3-(2,4,6-trimethylphenyl)urea]	–	–	–	–	–	–	–	< 50 µM	> 30%	< 50 µM	< 50 µM	< 50 µM	0.667 µM	–	–
O=C(Nc1ccc(NC(=O)N2C=NC=C3NNC=C32)cc1)Nc1ccc(Cl)c(C(F)(F)F)c1 [4b-5, 1-(4-(1H-pyrazolopyrimidine-4-amido)phenyl)-3-(4-chloro-3-(trifluoromethyl)phenyl)urea]	–	–	–	–	–	–	–	–	> 30%	7.64 µM	–	–	0.05 µM	–	–
